Measurements taken from the supplement of paper PMC4862054.

Assays:
Settings in all cases: 72 h
MCF-10A [1] = tested on: MCF-10A
Method in brief: (§1)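 In this assay, breast cancer cell lines spent 72 h with compound at 5 concentrations in 10-fold steps over a compound-specific 10,000-fold range. The first readout was cell death by CellTox Green fluorescence, and the second was viability by CellTiter-Glo luminescence, each normalised per plate to 0.1 % DMSO and a positive kill control. EC50 came from the dose-response curves, censored at the top concentration.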

MFM-223 [2] = tested on: MFM-223
Method in brief: as §1

HCC1599 [3] = tested on: HCC1599
Method in brief: as §1

CAL-120 [4] = tested on: CAL-120
Method in brief: as §1

HCC1937 [5] = tested on: HCC1937
Method in brief: as §1

MDA-MB-468 [6] = tested on: MDA-MB-468
Method in brief: as §1

DU-4475 [7] = tested on: DU-4475
Method in brief: as §1

CAL-51 [8] = tested on: CAL-51
Method in brief: as §1

BT-549 [9] = tested on: BT-549
Method in brief: as §1

HCC1143 [10] = tested on: HCC1143
Method in brief: as §1

SK-BR-3 = tested on: SK-BR-3
Method in brief: as §1

MDA-MB-436 [11] = tested on: MDA-MB-436
Method in brief: as §1

MDA-MB-231 [12] = tested on: MDA-MB-231
Method in brief: as §1

BT-474 [13] = tested on: BT-474
Method in brief: as §1

Hs578T [14] = tested on: Hs578T
Method in brief: as §1

MDA-MB-453 [15] = tested on: MDA-MB-453
Method in brief: as §1

CAL-85-1 [16] = tested on: CAL-85-1
Method in brief: as §1

HDQ-P1 [17] = tested on: HDQ-P1
Method in brief: as §1

CAL-148 [18] = tested on: CAL-148
Method in brief: as §1

HCC1937 [19] = tested on: HCC1937; remark: listed apart in the source
Method in brief: (§2)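 Breast cancer cell lines in 20 µl suspension were seeded onto 384-well plates pre-loaded with compound dissolved in 5 µl medium, then incubated 72 h. For viability, 2.5 µl CellTiter-Blue was added for 2 h at 37 °C and fluorescence read at 560/590 nm. Each plate was normalised to vehicle and a positive kill control and checked by Z'-factor. EC50 comes from the fitted percent-inhibition dose-response curve, censored at the highest concentration; rows with zero drug sensitivity score were dropped.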

Hs578T [20] = tested on: Hs578T; remark: listed apart in the source
Method in brief: as §2

MCF-10A [21] = tested on: MCF-10A; remark: listed apart in the source
Method: (§3)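 Drug sensitivity and resistance testing (DSRT) of breast cancer cell lines in 384-well plates, 5 concentrations in 10-fold dilutions over a compound-specific 10,000-fold range. After 72 h, cytotoxicity was read by CellTox Green fluorescence and viability by CellTiter-Glo luminescence (multiplexed), normalised to DMSO and benzethonium chloride controls. EC50 is the inflection point of the fitted dose-response curve (bottom asymptote free, so it can be relative for partial curves) and is censored at the highest tested concentration. Rows with DSS 0 (no meaningful response) were excluded.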

MFM-223 [22] = tested on: MFM-223; remark: listed apart in the source
Method: as §3

HCC1599 [23] = tested on: HCC1599; remark: listed apart in the source
Method: as §3

CAL-120 [24] = tested on: CAL-120; remark: listed apart in the source
Method: as §3

HCC1937 [25] = tested on: HCC1937; remark: listed apart in the source
Method: as §3

MDA-MB-468 [26] = tested on: MDA-MB-468; remark: listed apart in the source
Method: as §3

DU-4475 [27] = tested on: DU-4475; remark: listed apart in the source
Method: as §3

CAL-51 [28] = tested on: CAL-51; remark: listed apart in the source
Method: as §3

BT-549 [29] = tested on: BT-549; remark: listed apart in the source
Method: as §3

HCC1143 [30] = tested on: HCC1143; remark: listed apart in the source
Method: as §3

MDA-MB-436 [31] = tested on: MDA-MB-436; remark: listed apart in the source
Method: as §3

MDA-MB-231 [32] = tested on: MDA-MB-231; remark: listed apart in the source
Method: as §3

BT-474 [33] = tested on: BT-474; remark: listed apart in the source
Method: as §3

Hs578T [34] = tested on: Hs578T; remark: listed apart in the source
Method: as §3

MDA-MB-453 [35] = tested on: MDA-MB-453; remark: listed apart in the source
Method: as §3

CAL-85-1 [36] = tested on: CAL-85-1; remark: listed apart in the source
Method: as §3

HDQ-P1 [37] = tested on: HDQ-P1; remark: listed apart in the source
Method: as §3

CAL-148 [38] = tested on: CAL-148; remark: listed apart in the source
Method: as §3

MFM-223 [39] = tested on: MFM-223; remark: listed apart in the source
Method in brief: as §2

CAL-120 [40] = tested on: CAL-120; remark: listed apart in the source
Method in brief: as §2

MDA-MB-468 [41] = tested on: MDA-MB-468; remark: listed apart in the source
Method in brief: as §2

BT-549 [42] = tested on: BT-549; remark: listed apart in the source
Method in brief: as §2

MDA-MB-436 [43] = tested on: MDA-MB-436; remark: listed apart in the source
Method in brief: as §2

MDA-MB-231 [44] = tested on: MDA-MB-231; remark: listed apart in the source
Method in brief: as §2

BT-474 [45] = tested on: BT-474; remark: listed apart in the source
Method in brief: as §2

DU-4475 [46] = tested on: DU-4475; remark: listed apart in the source
Method in brief: as §2

MDA-MB-453 [47] = tested on: MDA-MB-453; remark: listed apart in the source
Method in brief: as §2

CAL-85-1 [48] = tested on: CAL-85-1; remark: listed apart in the source
Method in brief: as §2

HDQ-P1 [49] = tested on: HDQ-P1; remark: listed apart in the source
Method in brief: as §2

Row | Structure (SMILES) | EC50, CellTiter-Glo (MCF-10A [1]) | EC50, CellTiter-Glo (MFM-223 [2]) | EC50, CellTiter-Glo (HCC1599 [3]) | EC50, CellTiter-Glo (HCC1937 [5]) | EC50, CellTiter-Glo (DU-4475 [7]) | EC50, CellTiter-Glo (BT-549 [9]) | EC50, CellTiter-Glo (SK-BR-3) | EC50, CellTiter-Glo (MDA-MB-231 [12]) | EC50, CellTiter-Glo (BT-474 [13]) | EC50, CellTiter-Glo (Hs578T [14]) | EC50, CellTiter-Glo (MDA-MB-453 [15]) | EC50, CellTiter-Glo (CAL-85-1 [16]) | EC50, CellTiter-Blue viability (HCC1937 [19]) | EC50, CellTox Green (MCF-10A [21]) | EC50, CellTox Green (MFM-223 [22]) | EC50, CellTox Green (HCC1599 [23]) | EC50, CellTox Green (HCC1937 [25]) | EC50, CellTox Green (DU-4475 [27]) | EC50, CellTox Green (MDA-MB-231 [32]) | EC50, CellTox Green (BT-474 [33]) | other results
1 | N[C@@H](Cc1ccc(N(CCCl)CCCl)cc1)C(=O)O [Melphalan] | 424 nM | 310 nM | 467 nM | 235 nM | 322 nM | 758 nM | 247 nM | 237 nM | 313 nM | 518 nM | 213 nM | 444 nM | 85.5 nM | 275 nM | 514 nM | 726 nM | 613 nM | 1290 nM | 129 nM | 347 nM | EC50, CellTiter-Glo (CAL-120 [4]): 1220 nM; EC50, CellTiter-Glo (MDA-MB-468 [6]): 203 nM; EC50, CellTiter-Glo (CAL-51 [8]): 182 nM; EC50, CellTiter-Glo (HCC1143 [10]): 739 nM; EC50, CellTiter-Glo (MDA-MB-436 [11]): 501 nM; EC50, CellTiter-Glo (HDQ-P1 [17]): 297 nM; EC50, CellTiter-Glo (CAL-148 [18]): 268 nM; EC50, CellTiter-Blue viability (Hs578T [20]): 222 nM; EC50, CellTox Green (CAL-120 [24]): 1790 nM; EC50, CellTox Green (MDA-MB-468 [26]): 293 nM; EC50, CellTox Green (CAL-51 [28]): 194 nM; EC50, CellTox Green (BT-549 [29]): 778 nM; EC50, CellTox Green (HCC1143 [30]): 2910 nM; EC50, CellTox Green (MDA-MB-436 [31]): 2300 nM; EC50, CellTox Green (Hs578T [34]): 1110 nM; EC50, CellTox Green (MDA-MB-453 [35]): 419 nM; EC50, CellTox Green (CAL-85-1 [36]): 392 nM; EC50, CellTox Green (HDQ-P1 [37]): 363 nM; EC50, CellTox Green (CAL-148 [38]): 354 nM
2 | CCN(CC)CCOc1ccc(C(=C(Cl)c2ccccc2)c2ccccc2)cc1 [Clomifene] | 9400 nM | 6660 nM | 2830 nM | 2900 nM | 3460 nM | 1980 nM | 6000 nM | 3540 nM | 3940 nM | 2760 nM | 2910 nM | 2390 nM | 9530 nM | 1010 nM | 522 nM | 9780 nM | 1760 nM | 5820 nM | 1990 nM | 3470 nM | EC50, CellTiter-Blue viability (MFM-223 [39]): 6930 nM; EC50, CellTiter-Blue viability (CAL-120 [40]): 4600 nM; EC50, CellTiter-Blue viability (MDA-MB-468 [41]): 3630 nM; EC50, CellTiter-Blue viability (BT-549 [42]): 3250 nM; EC50, CellTiter-Blue viability (MDA-MB-436 [43]): 6850 nM; EC50, CellTiter-Blue viability (MDA-MB-231 [44]): 2830 nM; EC50, CellTiter-Blue viability (BT-474 [45]): 5530 nM; EC50, CellTiter-Blue viability (DU-4475 [46]): 7320 nM; EC50, CellTiter-Blue viability (MDA-MB-453 [47]): 4990 nM; EC50, CellTiter-Blue viability (CAL-85-1 [48]): 9270 nM; EC50, CellTiter-Blue viability (HDQ-P1 [49]): 9480 nM; EC50, CellTox Green (Hs578T [34]): 2260 nM; EC50, CellTox Green (MDA-MB-453 [35]): 5670 nM; EC50, CellTox Green (CAL-85-1 [36]): 6280 nM
